Measurements from patent publication US7722863B2, “Use of granzyme b as an hsp70/hsp70 peptide dependent inducer of apoptosis in tumor cells” (Multimmune GmbH, priority 2002, dated 2010).

Experiments:
[1] = test system: CD3 positive T cells; test: Intracellular granzyme B expression after treatment with Hsp70-peptide TKD; assay type: cell-based, human; conditions: treated with Hsp70-peptide TKD
Description: The physiological role of our findings was tested in functional assays using naive and Hsp70 stimulated human NK cells. […] Although Hsp70 acts as a tumor-selective recognition structure for NK cells, as determined by antibody blocking studies (Multhoff et. al. (1997) J. Immunol. 158,4341; Multhoff et. al. (1995) Blood 86,1374), the NK-cytotoxic mechanism remains unclear. To elucidate the possible mechanism, NK cells were incubated with Hsp70-peptide TKD ([…]) for 3 days. […] In contrast, granzyme B expression was not increased in CD3 positive T cells treated with Hsp70-peptide TKD. Light microscopical analysis of Hsp70-peptide activated NK cells co-incubated with Hsp70 membrane-positive CX+ and Hsp70 membrane-negative CX− cells is illustrated in FIG. 4A. Hsp70 membrane-positive CX+ and Hsp70 membrane-negative CX− tumor cells (0.1×10^6 cells/ml) were cultured in duplicates in 24 well plates for 2 days. […] CX+ and CX− tumor cells in the upper panel were cultured in the absence of NK cells; tumor cells in the lower panel were co-cultured for 12 h with NK cells that had been stimulated with Hsp70-peptide TKD (2 μg/ml, 3 days). Nearly 100% of the CX+ cell colonies were found in clusters with NK cells and viability of CX+ tumor cells appears to be reduced. […]

[2] = test system: Colo+ tumor target cells; test: 12 h 51Cr release assay, NK cell mediated cytotoxicity; assay type: cell-based, human; conditions: E:T ratios 2:1 to 20:1; TKD 3 days
Description: (§1) The NK cell line YT was cultured at cell densities ranging from 0.1-0.5×10^6 cells/ml RPMI-1640 medium (Life Technologies, Eggenstein, Germany) containing 10% heat inactivated fetal calf serum (FCS, Life Technologies, Eggenstein, Germany) supplemented with 6 mM L-glutamine, and antibiotics (100 IU/ml penicillin and 100 μg/ml streptomycin; Life Technologies). Transient plastic adherent NK cells were derived from buffy coats of healthy human volunteers. Ficoll separated peripheral blood mononuclear cells (PBMC) were cultured in rIL-2 (100 IU/ml, Chiron, Frankfurt, Germany) for 12 h. Following adherence selection of monocyte depleted peripheral blood lymphocytes according to a modified method of Vujanovic (Vujanovic et. al. (1993) Cell. Immunol. 151, 133), cells were cultivated in RPMI-1640 medium supplemented with Hsp70-peptide TKD (2 μg/ml) for 3 days. The human tumor sublines CX+/CX− and Colo+/Colo− were derived by cell sorting of CX-2 colon (Hsp70 positive: 60%) and Colo357 pancreas (Hsp70 positive: 70%) carcinoma cell lines using the Hsp70 specific monoclonal antibody C92F3B1, according to a previously described protocol (Multhoff et. al. (1997) J. Immunol. 158, 4341).
(§2) NK cell mediated cytotoxicity was measured using a 12 h ^51Cr radioisotope assay. As target cells the colon carcinoma sublines CX+ and CX− were used. For blocking studies the mAb C92F3B1 and an isotype matched control antibody (IgG1) were used at a final concentration of 5 μg/1×10^6 cells. Following incubation of CX+ and CX− target cells with the antibodies for 30 min at 4° C., the cells were labeled with ^51Cr and the cytotoxicity assay was performed as described by MacDonald (MacDonald et. al. (1974) J. Exp. Med. 140,718). The percentage of specific lysis was calculated as: [(experimental release−spontaneous release)/(maximal release−spontaneous release)]×100.
(§3) Cell kill of CX+/CX− and Colo+/Colo− tumor cells following contact with freshly isolated, unstimulated (NK d0) or Hsp70-peptide TKD stimulated NK cells (NK d3) was quantitated in a 12 h ^51Cr release assay (FIG. 4B). […] Technically, it is not possible to quantify the absolute amount of granzyme B that is transferred from NK cells into tumor cells by cell-to-cell contact. However, relative values of granzyme B release could be determined by ELISPOT analysis. Therefore, a comparison of the cytolytic response of freshly isolated, unstimulated (NK d0) and TKD-stimulated NK cells (NK d3) against CX+/CX− and Colo+/Colo− tumor cells was performed concomitantly with the definition of the granzyme B release. […] At an E:T ratio of 5:1, the number of granzyme B spots, as determined in three independent experiments, was as follows: CX+ 260±20, CX− 165±6; Colo+ 137±55; Colo− 66±8. […]

[3] = test system: Colo− tumor target cells; test: as above; assay type: cell-based, human; conditions: TKD 3 days
Description: as §1, §2, §3

[4] = test system: CX− tumor target cells; test: as above; assay type: cell-based, human; conditions: TKD 3 days
Description: as §1, §2, §3

[5] = test system: CX+ tumor target cells; test: as above; assay type: cell-based, human; conditions: E:T ratios 2:1 to 20:1; TKD 3 days
Description: as §1, §2, §3

[6] = test system: Hsp70 membrane-positive CX+ cells; test: Microscopy of tumor cells co-incubated with Hsp70-peptide TKD stimulated NK cells; assay type: cell-based, human
Description: (§4) FIG. 4A: Light microscopy (magnification 20×) of Hsp70 membrane-positive CX+ and Hsp70 membrane-negative CX− cell colonies, either untreated (control) or following a 12 h co-incubation with Hsp70-peptide TKD stimulated NK cells (+NK). The effector to target cell ratio (E:T) was 20:1.
(§5) The physiological role of our findings was tested in functional assays using naive and Hsp70 stimulated human NK cells. […] Although Hsp70 acts as a tumor-selective recognition structure for NK cells, as determined by antibody blocking studies (Multhoff et. al. (1997) J. Immunol. 158,4341; Multhoff et. al. (1995) Blood 86,1374), the NK-cytotoxic mechanism remains unclear. To elucidate the possible mechanism, NK cells were incubated with Hsp70-peptide TKD ([…]) for 3 days. […] In contrast, granzyme B expression was not increased in CD3 positive T cells treated with Hsp70-peptide TKD. Light microscopical analysis of Hsp70-peptide activated NK cells co-incubated with Hsp70 membrane-positive CX+ and Hsp70 membrane-negative CX− cells is illustrated in FIG. 4A. Hsp70 membrane-positive CX+ and Hsp70 membrane-negative CX− tumor cells (0.1×10^6 cells/ml) were cultured in duplicates in 24 well plates for 2 days. […] CX+ and CX− tumor cells in the upper panel were cultured in the absence of NK cells; tumor cells in the lower panel were co-cultured for 12 h with NK cells that had been stimulated with Hsp70-peptide TKD (2 μg/ml, 3 days). Nearly 100% of the CX+ cell colonies were found in clusters with NK cells and viability of CX+ tumor cells appears to be reduced. […] Cell viability of CX− tumor cells following contact with NK cells appears to be less affected, as compared to that of CX+ tumor cells. The inserts in the lower right corner of each graph illustrates a 2.5× magnification of one representative cell colony.
as §3

[7] = test system: Hsp70 membrane-negative CX− cells; test: as above; assay type: cell-based, human
Description: as §4, §5, §3

[8] = test system: Hsp70 membrane-positive tumor target cells; conditions: Hsp70-peptide 0.2-2.0 μg/ml; cited from earlier work
[9] = test system: NK cells; test: Intracellular granzyme B expression after stimulation with Hsp70-peptide TKD; assay type: cell-based, human
Description: The NK cell line YT was cultured at cell densities ranging from 0.1-0.5×10^6 cells/ml RPMI-1640 medium (Life Technologies, Eggenstein, Germany) containing 10% heat inactivated fetal calf serum (FCS, Life Technologies, Eggenstein, Germany) supplemented with 6 mM L-glutamine, and antibiotics (100 IU/ml penicillin and 100 μg/ml streptomycin; Life Technologies). Transient plastic adherent NK cells were derived from buffy coats of healthy human volunteers. Ficoll separated peripheral blood mononuclear cells (PBMC) were cultured in rIL-2 (100 IU/ml, Chiron, Frankfurt, Germany) for 12 h. […]
Cells (0.5×10^6) were fixed in paraformaldehyde (1% PFA in PBS) for 10 min, and permeabilized in PBS containing BSA (0.5%), NaN3 (0.1%), and saponin (0.1%). […] Following washing cells were analysed on a FACSCalibur instrument (Becton Dickinson, Heidelberg, Germany).
The physiological role of our findings was tested in functional assays using naive and Hsp70 stimulated human NK cells. […] Although Hsp70 acts as a tumor-selective recognition structure for NK cells, as determined by antibody blocking studies (Multhoff et. al. (1997) J. Immunol. 158,4341; Multhoff et. al. (1995) Blood 86,1374), the NK-cytotoxic mechanism remains unclear. […]

[10] = test system: CX− tumor cells; test: Granzyme B ELISPOT, NK cells co-incubated with tumor cells; assay type: cell-based, human; conditions: TKD-stimulated NK cells (NK d3), 4 h coincubation, E:T 5:1, three independent experiments
Description: (§6) Granzyme B release was compared in unstimualted NK cells (NK d0) and TKD stimulated NK cells (NK d3) after a 4 h co-incubation period with tumor cell lines CX+/CX− and Colo+/Colo−, at different effector to target cell ratios (E:T) ranging from 20:1 to 2:1. For detection a Granzyme B ELISPOT kit (#552572, BD, Heidelberg, Germany) was used. Briefly, 96-well ELISPOT plates (MAIPN45, Millipore) were coated overnight at 4° C. with capture antibody, blocked with RPMI-1640 culture medium containing 10% FCS and incubated with tumor and effector cells for 4 h at 37° C., as specified before. After washing in deionized water and wash buffers A and B, biotinylated anti-granzyme B antibody was added (2 μg/ml) for 2 h. After another two washing steps granzyme B was visualized by the addition of freshly prepared avidin-horseradish peroxidase (2 h) and substrate solution (25 min incubation period). Spots were counted automatically using ImmunoSpot Series I Analyzer. ^51Cr Release Assay and Inhibition Assay
(§7) Cell kill of CX+/CX− and Colo+/Colo− tumor cells following contact with freshly isolated, unstimulated (NK d0) or Hsp70-peptide TKD stimulated NK cells (NK d3) was quantitated in a 12 h ^51Cr release assay (FIG. 4B). […] Technically, it is not possible to quantify the absolute amount of granzyme B that is transferred from NK cells into tumor cells by cell-to-cell contact. However, relative values of granzyme B release could be determined by ELISPOT analysis. Therefore, a comparison of the cytolytic response of freshly isolated, unstimulated (NK d0) and TKD-stimulated NK cells (NK d3) against CX+/CX− and Colo+/Colo− tumor cells was performed concomitantly with the definition of the granzyme B release. Irrespectively of the tumor cell line and the E:T cell ratio, co-incubation of tumor cells with unstimulated NK cells (NK d0), always results in very low granzyme B release; the number of spots was always less than 20. […] At an E:T ratio of 5:1, the number of granzyme B spots, as determined in three independent experiments, was as follows: CX+ 260±20, CX− 165±6; Colo+ 137±55; Colo− 66±8. […] It was hypothesized that interaction of granzyme B with membrane-bound Hsp70-peptide TKD is key for its uptake into tumor cells and for the induction of apoptosis. When NK cells were removed by washing with PBS and the tumor cells were stained with DAPI. […] Identical results were obtained with Annexin V-FITC staining (data not shown).

[11] = test system: Colo− tumor cells; test: as above; assay type: cell-based, human; conditions: TKD-stimulated NK cells (NK d3), 4 h coincubation, E:T 5:1, three independent experiments
Description: as §6, §7

[12] = test system: CX+ tumor cells; test: as above; assay type: cell-based, human; conditions: TKD-stimulated NK cells (NK d3), 4 h coincubation, E:T 5:1, three independent experiments
Description: as §6, §7

[13] = test system: Colo+ tumor cells; test: as above; assay type: cell-based, human; conditions: TKD-stimulated NK cells (NK d3), 4 h coincubation, E:T 5:1, three independent experiments
Description: as §6, §7

[14] = 12 h co-culture with NK cells stimulated with TKD 2 μg/ml, 3 days, E:T 20:1

## TKDNNLLGRFELSG (listed as Homo sapiens) [Hsp70-peptide TKD]
[1]
  granzyme B expression in CD3 positive T cells: not increased
[2]
  lysis of Colo+ cells, TKD stimulated (NK d3) versus naive NK cells (NK d0): 2.0 fold
[3]
  lysis of Colo− tumor cells, NK d3 versus NK d0: remained unaffected
[4]
  lysis of CX− tumor cells, NK d3 versus NK d0: remained unaffected
[5]
  lysis of CX+ cells, TKD stimulated (NK d3) versus naive NK cells (NK d0): 1.5 fold
[6]; [14]
  CX+ cell colonies found in clusters with NK cells: ~100%
[6]; NK cells removed by washing
  DNA fragmentation (DAPI) in CX+ cells after co-incubation with TKD activated NK cells: showed DNA fragmentation
[7]; [14]
  CX− tumor cells in clusters with NK cells: not found in clusters
[7]; NK cells removed by washing
  DNA fragmentation (DAPI) in CX− cells after co-incubation with TKD activated NK cells: not
[8]
  cytolytic activity of NK cells against Hsp70 membrane-positive tumor target cells: increased cytolytic activity
[9]; Hsp70-peptide TKD 2 μg/ml, 3 days
  intracellular granzyme B levels, TKD stimulated NK cells (NK d3) versus naive NK cells (NK d0): 1.4 fold
[9]; Hsp70-peptide TKD for 3 days, 3 independent experiments
  intracellular granzyme B expression in NK cells: significantly elevated
[10]
  number of granzyme B spots: 165±6
[11]
  number of granzyme B spots: 66±8
[12]
  number of granzyme B spots: 260±20
[13]
  number of granzyme B spots: 137±55
